Results on eight compounds are retold here after patent US10232012B2 (INDUSTRY-ACADEMIC COOPERATION FOUNDATION, YONSEI UNIVERSITY, priority 2016, dated 2019).

Read-outs that look alike come from different tables or passages of the source. Ends that are not written are not given here.

The target in one series is PrP^SC in ScN2a cells (Mus musculus, UniProt P04925). Type of series: cell-based. The settings on record: for anti-prion activity at 30 nM: pH 7.4.
The format of series [1] is physicochemical. The settings on record: pH 3.
A short description of the next series: in vitro. The note with it: mouse, ScN2a cells, pH 7.4, cell survival rate.
Series [2] is classed as physicochemical.

Sequence of PrP^SC in ScN2a cells (P04925 23-230 limits assumed): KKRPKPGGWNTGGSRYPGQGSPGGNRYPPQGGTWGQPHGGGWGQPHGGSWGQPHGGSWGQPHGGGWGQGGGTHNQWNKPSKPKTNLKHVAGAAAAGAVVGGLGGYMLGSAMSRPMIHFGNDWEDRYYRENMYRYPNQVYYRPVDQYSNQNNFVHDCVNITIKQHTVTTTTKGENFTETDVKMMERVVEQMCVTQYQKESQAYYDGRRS

On to `N=C(N)NCCC[C@H](NC(=O)CNC(=O)CCCCCN)C(=O)N[C@@H](CCCCN)C(=O)N[C@@H](CCCCN)C(=O)N[C@@H](CCCNC(=N)N)C(=O)N[C@@H](CCCNC(=N)N)C(=O)N[C@@H](CCC(N)=O)C(=O)N[C@@H](CCCNC(=N)N)C(=O)N[C@@H](CCCNC(=N)N)C(=O)N[C@@H](CCCNC(=N)N)C(=O)N1CCC[C@H]1C(=O)N1CCC[C@H]1C(=O)N[C@@H](CCC(N)=O)C(N)=O` [Comparative Example 1, reference compound], for which the cytotoxicity result in the series with ScN2a cells is listed as “remarkably low cytotoxicity”.
As for “H-GRKKRRQRRRPPQ-GSGG-FKFEFKFEFKFE-NH2 [Example 1]”, at PrP^SC in ScN2a cells, the “anti-prion activity (PK-resistant PrP^SC level by western blot)” value is listed as “gradual decrease in the PrP^SC concentration as its concentration is increased” and the “concentration at which anti-prion activity is exhibited” value is reported as at least 100 nM.
Regarding “RRRRRRRRRRRRGSGGFKFEFKFEFKFE-NH2 [R12-β UNS]”, the “cytotoxicity at 10 μM” value with ScN2a cells (pH 7.4) was “low toxicity”. Further, on PrP^SC in ScN2a cells, the “anti-prion activity (PK-resistant PrP^SC level by western blot)” value is “comparable to that of the peptide Comparative Example 3” and the “fold higher anti-prion activity than R12-β SPN (fibrillar nanostructure)” value is reported as 14.5 times.
On to “H-RRRRRRRRRRRRRR-GSGG-FKFEFKFEFKFE-NH2 [Example 4]”, for which, on PrP^SC in ScN2a cells, the “anti-prion activity at 30 nM” value was “remarkably high anti-prion activity”.
A word on the viability: it is a per cent measure of how many cells are alive, often set against a control. Lower therefore signals a greater loss of cells. “RRRRRRRRRRRRGSGGFKFEFKFEFKFE-NH2 [Example 3]”: in the series on ScN2a cells, the cytotoxicity entry is recorded as “significantly lower toxicity than the peptide of Comparative Example 3”. Further, in series [1], the “diameter of vesicular nanostructure” value is on record as 20-90 nm; the “height of vesicular nanostructure, on average” value was 1-20 nm; the “height of vesicular nanostructure, specifically” value is 8-16 nm; the “width of vesicular nanostructure, on average” value is 50-100 nm. Further, the “width of vesicular nanostructure, specifically” value in series [1] was 70-90 nm. Further, at PrP^SC in ScN2a cells, the “anti-prion activity (PK-resistant PrP^SC level by western blot)” value was “remarkably higher anti-prion activity than the peptide consisting only of arginine residues of the same number (R12)”, the “anti-prion activity at 10 nM” value is given as “remarkably superior anti-prion activity” and the “fold decrease of anti-prion activity compared to R12-β UNS” value was at least 14.5 times. The viability in “in vitro” is at least 70%. Besides, in series [2] (pH 2), the “zeta potential difference, acidic condition (pH 2-5.5) versus neutral condition” value is given as “+14 to 18 mV”. For the same compound, the zeta potential result in series [2] (pH 3) is reported as “+40 mV”. In series [2] (pH 5), the zeta potential result is reported as “+38 mV”. In series [2] (pH 7), the zeta potential result is listed as “+24 mV”. Besides, the zeta potential result in series [2] (pH 11) is recorded as “+30 mV”.
Take “RRRRRRRRRRRRGSGGFKFEFKFEFKFE-NH2 [R12-β SPN]”: the cytotoxicity result in the series on ScN2a cells was “moderate cytotoxicity”. Also, on PrP^SC in ScN2a cells, the “anti-prion activity (PK-resistant PrP^SC level by western blot)” value is given as “comparable to that of the peptide of Example 1”.
With H-RR-ahx-FKFEFKFEFKFE-NH2 [Example 2], the “anti-prion activity (PK-resistant PrP^SC level by western blot)” value at PrP^SC in ScN2a cells was “shows anti-prion activity, although weaker than that of the fusion peptide of Example 1”.
Regarding “H-RRRRRRRRRRRRRRR-GSGG-FKFEFKFEFKFE-NH2 [Example 5]”, the “anti-prion activity at 30 nM” value on PrP^SC in ScN2a cells is reported as “remarkably high anti-prion activity”.
